Source: patent US10358436B2, “Kinase inhibitors and method of treating cancer” (University Health Network, priority 2010, dated 2019)
Structures can show the parent of a compound that is named as a salt.

Molecular target: Aurora A (Homo sapiens (Human), UniProt O14965)
Test: Aurora A inhibition assay (Z-Lyte)
Type: biochemical

Chain of Aurora A (O14965 whole entry): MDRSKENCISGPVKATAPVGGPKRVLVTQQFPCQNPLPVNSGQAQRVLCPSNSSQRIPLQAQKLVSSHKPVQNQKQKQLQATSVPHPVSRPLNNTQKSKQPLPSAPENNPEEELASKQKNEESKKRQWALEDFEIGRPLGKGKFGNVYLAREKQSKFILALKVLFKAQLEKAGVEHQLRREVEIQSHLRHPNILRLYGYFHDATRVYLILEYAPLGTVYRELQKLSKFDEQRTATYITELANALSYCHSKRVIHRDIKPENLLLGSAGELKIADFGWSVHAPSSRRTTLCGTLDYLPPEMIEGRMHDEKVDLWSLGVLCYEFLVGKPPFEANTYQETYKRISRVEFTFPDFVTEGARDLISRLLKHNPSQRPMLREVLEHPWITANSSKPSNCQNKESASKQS

Row | inhibition at 1 µM [%] | Compound
1 | > 50 | COc1ccc2c(c1)[C@]1(CC1c1ccc3c(/C=C/c4ccc(CN5CCCCC5)nc4)n[nH]c3c1)C(=O)N2 (mixture of isomers) [Example A62, (1R,2S)-(E)-5′-methoxy-2-(3-((E)-2-(6-(piperidin-1-ylmethyl)pyridin-3-yl)vinyl)-1H-indazol-6-yl)spiro[cyclopropane-1,3′-indolin]-2′-one 2,2,2-trifluoroacetate salt]
2 | < 50 | O=C1Nc2ccccc2[C@]12C[C@H]2c1ccc2c(I)n[nH]c2c1 (relative stereo) [Example A9, (1R*,2S*)-2-(3-iodo-1H-indazol-6-yl)spiro[cyclopropane-1,3′-indolin]-2′-one]
3 | < 50 | CN1CCN(c2ccc(-c3n[nH]c4cc([C@@H]5C[C@@]56C(=O)Nc5ccc(Br)cc56)ccc34)cn2)CC1 (relative stereo) [Example A19, (1R*,2S*)-5′-bromo-2-(3-(6-(4-methylpiperazin-1-yl)pyridin-3-yl)-1H-indazol-6-yl)spiro[cyclopropane-1,3′-indolin]-2′-one]
4 | < 50 | COc1ccc2c(c1)[C@]1(C[C@H]1c1ccc3c(-c4ccc(N5CCOCC5)nc4)n[nH]c3c1)C(=O)N2 (relative stereo) [Example A20, (1R*,2S*)*-5′-Methoxy-2-(3-(6-morpholinopyridin-3-yl)-1H-indazol-6-yl)spiro[cyclopropane-1,3′-indolin]-2′-one]
5 | < 50 | O=C1Nc2ncc(Br)cc2[C@]12C[C@H]2c1ccc2c(/C=C/c3cccnc3)n[nH]c2c1 (relative stereo) [Example A27, (1R*,2S*)-5′-bromo-2-(3-((E)-2-(pyridin-3-yl)vinyl)-1H-indazol-6-yl)spiro[cyclopropane-1,3′-pyrrolo[2,3-b]pyridin]-2′(1′H)-one]
6 | > 50 | O=C1Nc2ccccc2[C@]12C[C@H]2c1ccc2c(/C=C/c3cccnc3)n[nH]c2c1 (relative stereo) [Example A28, (1R*,2S*)-2-(3-((E)-2-(pyridin-3-yl)vinyl)-1H-indazol-6-yl)spiro-[cyclopropane-1,3′-indolin]-2′-one]
7 | < 50 | O=C1Nc2ccc(F)cc2[C@]12C[C@H]2c1ccc2c(I)n[nH]c2c1 (relative stereo) [Example A40, (1R*,2S*)-5′-fluoro-2-(3-iodo-1H-indazol-6-yl)spiro[cyclopropane-1,3′-indolin]-2′-one]
8 | < 50 | COc1ccc2c(c1)[C@]1(C[C@H]1c1ccc3c(-c4cccc(CN5CCCCC5)c4)n[nH]c3c1)C(=O)N2 (relative stereo) [Example A44, (1R*,2S*)-5′-methoxy-2-(3-(3-(piperidin-1-ylmethyl)phenyl)-1H-indazol-6-yl)spiro[cyclopropane-1,3′-indolin]-2′-one 2,2,2-trifluoroacetate]
9 | < 50 | COc1ccc2c(c1)[C@]1(C[C@H]1c1ccc3c(-c4ccc(CO)cc4)n[nH]c3c1)C(=O)N2 (relative stereo) [Example A45, (1R*,2S*)-2-(3-(4-(hydroxymethyl)phenyl)-1H-indazol-6-yl)-5′-methoxyspiro[cyclopropane-1,3′-indolin]-2′-one 2,2,2-trifluoroacetate]
10 | < 50 | COc1ccc2c(c1)[C@]1(C[C@H]1c1ccc3c(-c4cccc(N5CCNCC5)c4)n[nH]c3c1)C(=O)N2 (relative stereo) [Example A47, (1R*,2S*)-5′-methoxy-2-(3-(3-(piperazin-1-yl)phenyl)-1H-indazol-6-yl)spiro[cyclopropane-1,3′-indolin]-2′-one 2,2,2-trifluoroacetate]

Row | Compound | inhibition at 1 µM [%]
11 | COc1ccc2c(c1)[C@]1(C[C@H]1c1ccc3c(/C=C/c4ccc(CN5CCOCC5)cc4)n[nH]c3c1)C(=O)N2 (relative stereo) [Example A41, (1R*,2S*)-(E)-5′-methoxy-2-(3-(4-(morpholinomethyl)styryl)-1H-indazol-6-yl)spiro[cyclopropane-1,3′-indolin]-2′-one 2,2,2-trifluoroacetate] | > 50
